Test results taken from ChEMBL document CHEMBL5303573, “Mapping human microbiome drug metabolism by gut bacteria and their genes” (Nature, 2019).

Experiments:
[1] = The drug is tested on Clostridium hathewayi strain: DSM13479 for biotransformation. The drug concentrations were measured before and after a 12-h incubation by liquid-chromatography-coupled mass spectrometry (LC–MS); settings: hungatella hathewayi, 2 µM
[2] = The drug is tested on Providencia alcalifaciens strain: DSM30120 for biotransformation. The drug concentrations were measured before and after a 12-h incubation by liquid-chromatography-coupled mass spectrometry (LC–MS); settings: 2 µM
[3] = The drug is tested on Bacteroides fragilis strain: T(B)9 for biotransformation. The drug concentrations were measured before and after a 12-h incubation by liquid-chromatography-coupled mass spectrometry (LC–MS); settings: 2 µM
GDSL-like protein = molecular target: T1, GDSL-like protein (Collinsella aerofaciens, UniProt A4E8S4); experiment: The drug is tested on Collinsella aerofaciens strain: ATCC25986 for biotransformation. The drug concentrations were measured before and after a 12-h incubation by liquid-chromatography-coupled mass spectrometry (LC–MS); assay type: ADME; set-up: dose 2 uM; settings: 2 µM
T1 sequence (A4E8S4 whole entry): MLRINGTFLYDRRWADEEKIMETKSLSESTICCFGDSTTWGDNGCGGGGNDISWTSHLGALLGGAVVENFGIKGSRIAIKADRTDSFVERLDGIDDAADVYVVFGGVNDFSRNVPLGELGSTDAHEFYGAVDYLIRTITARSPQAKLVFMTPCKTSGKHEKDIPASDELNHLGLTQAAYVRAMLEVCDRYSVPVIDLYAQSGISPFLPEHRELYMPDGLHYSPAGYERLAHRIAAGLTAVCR

[4] = molecular target: T2, SGNH hydrolase-type esterase domain-containing protein (Phocaeicola dorei, UniProt B6W1J1); experiment: (§1) The drug is tested on Bacteroides dorei strain: DSM17855 for biotransformation. The drug concentrations were measured before and after a 12-h incubation by liquid-chromatography-coupled mass spectrometry (LC–MS); assay type: ADME; set-up: dose 2 uM; settings: 2 µM
T2 sequence (B6W1J1 whole entry): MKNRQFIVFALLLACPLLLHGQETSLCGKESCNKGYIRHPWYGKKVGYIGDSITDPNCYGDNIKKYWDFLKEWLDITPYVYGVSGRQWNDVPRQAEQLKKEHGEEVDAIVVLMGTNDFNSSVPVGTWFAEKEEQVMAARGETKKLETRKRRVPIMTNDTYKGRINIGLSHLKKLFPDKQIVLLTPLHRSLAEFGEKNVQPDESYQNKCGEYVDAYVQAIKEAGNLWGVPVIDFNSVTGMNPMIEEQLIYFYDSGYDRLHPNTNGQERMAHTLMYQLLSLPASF

[5] = molecular target: T3, SGNH hydrolase-type esterase domain-containing protein (Phocaeicola dorei, UniProt B6W293); experiment: as §1; assay type: ADME; set-up: dose 2 uM; settings: 2 µM
T3 sequence (B6W293 whole entry): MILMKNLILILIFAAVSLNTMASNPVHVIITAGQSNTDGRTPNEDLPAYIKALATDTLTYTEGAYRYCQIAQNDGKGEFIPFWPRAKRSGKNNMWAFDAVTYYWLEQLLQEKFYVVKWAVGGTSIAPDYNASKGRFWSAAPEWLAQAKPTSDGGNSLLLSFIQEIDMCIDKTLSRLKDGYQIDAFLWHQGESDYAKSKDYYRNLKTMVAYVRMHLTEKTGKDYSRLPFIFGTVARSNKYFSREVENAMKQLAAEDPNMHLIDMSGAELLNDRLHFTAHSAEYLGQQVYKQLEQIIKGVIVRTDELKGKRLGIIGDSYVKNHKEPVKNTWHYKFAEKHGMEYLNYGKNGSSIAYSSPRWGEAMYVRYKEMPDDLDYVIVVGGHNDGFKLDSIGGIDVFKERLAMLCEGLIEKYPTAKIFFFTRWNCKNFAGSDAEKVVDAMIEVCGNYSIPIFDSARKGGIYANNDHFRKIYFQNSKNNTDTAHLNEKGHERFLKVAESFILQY

[6] = molecular target: T4, Nitroreductase domain-containing protein (Phocaeicola dorei, UniProt B6W3P3); experiment: as §1; assay type: ADME; set-up: dose 2 uM; settings: 2 µM
T4 sequence (B6W3P3 whole entry): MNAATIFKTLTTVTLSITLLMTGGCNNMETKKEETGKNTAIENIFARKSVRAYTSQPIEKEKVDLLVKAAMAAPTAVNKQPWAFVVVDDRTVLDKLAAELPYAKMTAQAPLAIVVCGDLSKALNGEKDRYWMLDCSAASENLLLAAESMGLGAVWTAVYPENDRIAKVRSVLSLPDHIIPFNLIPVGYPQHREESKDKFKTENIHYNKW

[7] = molecular target: T5, Nitroreductase domain-containing protein (Phocaeicola dorei, UniProt B6VU18); experiment: as §1; assay type: ADME; set-up: dose 2 uM; settings: 2 µM
T5 sequence (B6VU18 whole entry): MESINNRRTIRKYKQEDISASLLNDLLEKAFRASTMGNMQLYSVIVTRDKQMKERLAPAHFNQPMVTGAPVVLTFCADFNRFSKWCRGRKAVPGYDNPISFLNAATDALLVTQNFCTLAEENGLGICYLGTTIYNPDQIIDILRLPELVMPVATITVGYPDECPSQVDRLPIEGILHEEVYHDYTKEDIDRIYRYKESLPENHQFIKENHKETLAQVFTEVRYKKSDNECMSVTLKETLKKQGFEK

[8] = molecular target: T6, SGNH hydrolase-type esterase domain-containing protein (Phocaeicola dorei, UniProt B6VTE7); experiment: as §1; assay type: ADME; set-up: dose 2 uM; settings: 2 µM
T6 sequence (B6VTE7 whole entry): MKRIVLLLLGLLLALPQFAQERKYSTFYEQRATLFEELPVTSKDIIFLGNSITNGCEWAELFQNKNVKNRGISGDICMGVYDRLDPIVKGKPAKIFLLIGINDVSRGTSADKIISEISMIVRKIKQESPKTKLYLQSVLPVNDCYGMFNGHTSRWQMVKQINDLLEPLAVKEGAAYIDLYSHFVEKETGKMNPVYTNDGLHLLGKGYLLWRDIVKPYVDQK

Esterase = molecular target: T7, Esterase (Phocaeicola dorei, UniProt B6W2J6); experiment: as §1; assay type: ADME; set-up: dose 2 uM; settings: 2 µM
T7 sequence (B6W2J6 whole entry): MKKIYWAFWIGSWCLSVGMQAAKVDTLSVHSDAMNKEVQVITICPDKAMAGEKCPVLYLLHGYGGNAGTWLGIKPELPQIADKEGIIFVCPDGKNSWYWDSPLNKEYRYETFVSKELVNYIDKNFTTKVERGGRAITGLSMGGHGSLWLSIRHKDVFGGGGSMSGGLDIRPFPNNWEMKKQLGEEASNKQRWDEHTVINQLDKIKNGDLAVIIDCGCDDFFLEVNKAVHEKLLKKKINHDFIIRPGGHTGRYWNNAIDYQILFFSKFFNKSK

Lipase = molecular target: T8, Lipase (Bacteroides thetaiotaomicron, UniProt Q8A3J3); experiment: The drug is tested on Bacteroides thetaiotaomicron strain: VPI-5482 for biotransformation. The drug concentrations were measured before and after a 12-h incubation by liquid-chromatography-coupled mass spectrometry (LC–MS); assay type: ADME; set-up: dose 2 uM; settings: 2 µM
T8 sequence (Q8A3J3 whole entry): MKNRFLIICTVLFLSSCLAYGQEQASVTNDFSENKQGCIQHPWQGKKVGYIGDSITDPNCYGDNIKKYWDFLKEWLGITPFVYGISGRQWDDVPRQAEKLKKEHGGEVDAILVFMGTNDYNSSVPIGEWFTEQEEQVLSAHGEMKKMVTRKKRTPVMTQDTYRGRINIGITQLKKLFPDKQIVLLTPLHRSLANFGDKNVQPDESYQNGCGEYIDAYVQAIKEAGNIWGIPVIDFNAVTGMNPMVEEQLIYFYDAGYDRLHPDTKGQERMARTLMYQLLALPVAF

[9] = The drug is tested on Eubacterium biforme strain: DSM3989 for biotransformation. The drug concentrations were measured before and after a 12-h incubation by liquid-chromatography-coupled mass spectrometry (LC–MS); settings: holdemanella biformis, 2 µM

SMILES	Bacterial Biotransformation [1]	Bacterial Biotransformation [2]	Bacterial Biotransformation [3]	Bacterial Biotransformation [9]	also measured
CCCC(=O)Nc1ccc(OCC(O)CNC(C)C)c(C(C)=O)c1 (configuration not stated) [ACEBUTOLOL]	Compound NOT metabolized	–	–	–	–
CC(C)NCC(O)COc1ccc(CC(N)=O)cc1 (configuration not stated) [ATENOLOL]	–	Compound NOT metabolized	–	–	–
CC(C)NCC(O)COc1ccc(CCOCC2CC2)cc1 (configuration not stated) [BETAXOLOL]	Compound NOT metabolized	Compound NOT metabolized	Compound NOT metabolized	–	–
CC(=O)Oc1ccc(C(c2ccc(OC(C)=O)cc2)c2ccccn2)cc1 [BISACODYL]	–	–	–	–	Bacterial Biotransformation (GDSL-like protein): Compound metabolized; Bacterial Biotransformation [4]: Compound metabolized; Bacterial Biotransformation [5]: Compound metabolized; Bacterial Biotransformation [6]: Compound NOT metabolized; Bacterial Biotransformation [7]: Compound NOT metabolized; Bacterial Biotransformation [8]: Compound metabolized; Bacterial Biotransformation (Esterase): Compound metabolized; Bacterial Biotransformation (Lipase): Compound metabolized
CC(NC(C)(C)C)C(=O)c1cccc(Cl)c1 (configuration not stated) [BUPROPION]	Compound NOT metabolized	–	–	–	–
COc1ccccc1OCCNCC(O)COc1cccc2[nH]c3ccccc3c12 (configuration not stated) [CARVEDILOL]	Compound metabolized	–	–	–	–
O=C(O)COCCN1CCN(C(c2ccccc2)c2ccc(Cl)cc2)CC1 (configuration not stated) [CETIRIZINE]	Compound NOT metabolized	Compound NOT metabolized	Compound metabolized	Compound metabolized	–
CN/C(=N/CCSCc1nc[nH]c1C)NC#N [CIMETIDINE]	Compound NOT metabolized	Compound NOT metabolized	Compound metabolized	–	–
Clc1cccc(Cl)c1N=C1NCCN1 [CLONIDINE]	Compound NOT metabolized	Compound NOT metabolized	Compound metabolized	Compound NOT metabolized	–
COC(=O)[C@H](c1ccccc1Cl)N1CCc2sccc2C1.O=S(=O)(O)O [CLOPIDOGREL BISULFATE]	–	Compound NOT metabolized	Compound metabolized	Compound NOT metabolized	–
CN1CCN(C2=Nc3cc(Cl)ccc3Nc3ccccc32)CC1 [CLOZAPINE]	Compound NOT metabolized	–	–	Compound NOT metabolized	–
CN(C)CCC=C1c2ccccc2C=Cc2ccccc21 [CYCLOBENZAPRINE]	Compound NOT metabolized	Compound NOT metabolized	Compound NOT metabolized	Compound NOT metabolized	–
O=P1(N(CCCl)CCCl)NCCCO1 (configuration not stated) [CYCLOPHOSPHAMIDE ANHYDROUS]	–	Compound NOT metabolized	Compound NOT metabolized	Compound metabolized	–
C#C[C@]1(O)CC[C@H]2[C@@H]3CCC4=Cc5oncc5C[C@]4(C)[C@H]3CC[C@@]21C [DANAZOL]	–	–	–	–	Bacterial Biotransformation (GDSL-like protein): Compound NOT metabolized; Bacterial Biotransformation [4]: Compound NOT metabolized; Bacterial Biotransformation [5]: Compound NOT metabolized; Bacterial Biotransformation [6]: Compound NOT metabolized; Bacterial Biotransformation [7]: Compound NOT metabolized; Bacterial Biotransformation [8]: Compound NOT metabolized; Bacterial Biotransformation (Esterase): Compound NOT metabolized; Bacterial Biotransformation (Lipase): Compound NOT metabolized
CC(=O)OCC(=O)[C@@]12N=C(C)O[C@@H]1C[C@H]1[C@@H]3CCC4=CC(=O)C=C[C@]4(C)[C@H]3[C@@H](O)C[C@@]12C [DEFLAZACORT]	–	–	–	–	Bacterial Biotransformation [6]: Compound NOT metabolized; Bacterial Biotransformation [7]: Compound NOT metabolized; Bacterial Biotransformation (Esterase): Compound NOT metabolized
c1ccc([C@H]2CN3CCSC3=N2)cc1 [LEVAMISOLE]	Compound NOT metabolized	–	Compound metabolized	Compound NOT metabolized	–
CCOC(=O)C1=C(C)NC(C)=C(C(=O)OC)C1c1cccc([N+](=O)[O-])c1 (configuration not stated) [NITRENDIPINE]	–	–	–	–	Bacterial Biotransformation (GDSL-like protein): Compound NOT metabolized; Bacterial Biotransformation [4]: Compound NOT metabolized; Bacterial Biotransformation [5]: Compound NOT metabolized; Bacterial Biotransformation [6]: Compound metabolized; Bacterial Biotransformation [7]: Compound metabolized; Bacterial Biotransformation [8]: Compound NOT metabolized; Bacterial Biotransformation (Esterase): Compound NOT metabolized
CCOc1cc(CC(=O)N[C@@H](CC(C)C)c2ccccc2N2CCCCC2)ccc1C(=O)O [REPAGLINIDE]	Compound NOT metabolized	–	–	–	–
O=C(O)c1cc(/N=N/c2ccc(S(=O)(=O)Nc3ccccn3)cc2)ccc1O [SULFASALAZINE]	–	–	–	–	Bacterial Biotransformation [4]: Compound NOT metabolized; Bacterial Biotransformation [5]: Compound NOT metabolized; Bacterial Biotransformation [6]: Compound NOT metabolized; Bacterial Biotransformation [7]: Compound NOT metabolized; Bacterial Biotransformation [8]: Compound NOT metabolized; Bacterial Biotransformation (Esterase): Compound NOT metabolized; Bacterial Biotransformation (Lipase): Compound NOT metabolized
